Each structure is given as a SMILES string.

The record followed here is patent US20130184273A1, “BICYCLIC PYRIMIDINES” (Bayer Intellectual Property GmbH, priority 2010, published 2013).

Experiment [1] addresses T1, His-tagged human recombinant kinase full-length Akt1 (Homo sapiens, UniProt P31749).
T1 construct: His-tagged human recombinant kinase full-length Akt1; His; purchased Invitrogen PV 3599; host or cells: insect cells
Description: Akt1 kinase assay (TR-FRET). The experiment is classed as biochemical. Particulars: 10 μM ATP, 60 min at 22° C., read-out: Akt1, median IC50. The text has this: Akt1 inhibitory activity of compounds of the present invention was quantified employing the Akt1 TR-FRET assay as described in the following paragraphs.
His-tagged human recombinant kinase full-length Akt1 expressed in insect cells was purchased form Invitrogen (part number PV 3599). As substrate for the kinase reaction the biotinylated peptide biotin-Ahx-KKLNRTLSFAEPG (C-terminus in amide form) was used which can be purchased e.g. from the company Biosynthan GmbH (Berlin-Buch, Germany).
For the assay 50 nl of a 100 fold concentrated solution of the test compound in DMSO was pipetted into a black low volume 384well microtiter plate (Greiner Bio-One, Frickenhausen, Germany), 2 μl of a solution of Akt1 in assay buffer [50 mM TRIS/HCl pH 7.5, 5 mM MgCl2, 1 mM dithiothreitol, 0.02% (v/v) Triton X-100 (Sigma)] were added and the mixture was incubated for 15 min at 22° C. to allow pre-binding of the test compounds to the enzyme before the start of the kinase reaction. Then the kinase reaction was started by the addition of 3 μl of a solution of adenosine-tri-phosphate (ATP, 16.7 μM=>final conc. in the 5 μl assay volume is 10 μM) and substrate (1.67 μM=>final conc. in the 5 μl assay volume is 1 μM) in assay buffer and the resulting mixture was incubated for a reaction time of 60 min at 22° C. The concentration of Akt1 in the assay was adjusted depending of the activity of the enzyme lot and was chosen appropriate to have the assay in the linear range, typical enzyme concentrations were in the range of about 0.05 ng/μl (final conc. in the 5 μl assay volume).
The reaction was stopped by the addition of 5 μl of a solution of HTRF detection reagents (200 nM streptavidine-XL665 [Cisbio] and 1.5 nM anti-phosho-Serine antibody [Millipore, cat. #35-001] and 0.75 nM LANCE Eu-W 1024 labeled anti-mouse IgG antibody [Perkin Elmer]) in an aqueous EDTA-solution (100 mM EDTA, 0.1% (w/v) bovine serum albumin in 50 mM HEPES/NaOH pH 7.5). The resulting mixture was incubated 1 h at 22° C. to allow the binding of the biotinylated phosphorylated peptide to the streptavidine-XL665 and the antibodies. Subsequently the amount of phosphorylated substrate was evaluated by measurement of the resonance energy transfer from the anti-mouse-IgG-Eu-Chelate to the streptavidine-XL665. Therefore, the fluorescence emissions at 620 nm and 665 nm after excitation at 350 nm was measured in a HTRF reader, e.g. a Rubystar (BMG Labtechnologies, Offenburg, Germany) or a Viewlux (Perkin-Elmer). The ratio of the emissions at 665 nm and at […] was taken as the measure for the amount of phosphorylated substrate. The data were normalised (enzyme reaction without inhibitor=0% inhibition, all other assay components but no enzyme=100% inhibition).

Experiment [2] deals with T2, His-tagged human recombinant kinase full-length Akt2 (Homo sapiens, UniProt P31751).
T2 construct: His-tagged human recombinant kinase full-length Akt2; His; purchased Invitrogen PV 3975; host or cells: insect cells
T2 sequence (P31751 whole entry): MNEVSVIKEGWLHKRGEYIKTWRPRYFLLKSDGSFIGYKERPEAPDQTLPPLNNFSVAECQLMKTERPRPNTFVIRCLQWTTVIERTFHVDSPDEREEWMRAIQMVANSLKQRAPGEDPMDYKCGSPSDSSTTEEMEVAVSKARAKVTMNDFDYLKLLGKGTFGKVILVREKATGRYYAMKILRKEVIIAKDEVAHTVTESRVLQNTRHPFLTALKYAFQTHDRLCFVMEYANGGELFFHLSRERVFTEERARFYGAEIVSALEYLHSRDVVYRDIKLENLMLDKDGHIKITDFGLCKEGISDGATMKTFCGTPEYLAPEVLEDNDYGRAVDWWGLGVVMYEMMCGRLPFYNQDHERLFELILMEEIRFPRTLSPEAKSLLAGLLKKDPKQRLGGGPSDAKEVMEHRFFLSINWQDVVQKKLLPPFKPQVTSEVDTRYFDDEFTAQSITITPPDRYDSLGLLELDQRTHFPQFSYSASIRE
Description: Akt2 kinase assay (TR-FRET). Particulars: 10 μM ATP, 60 min at 22° C., read-out: Akt2, median IC50. The experiment is classed as biochemical. In outline: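 His-tagged full-length human Akt2, insect-cell expressed and PDK1-activated (~0.2 ng/μl final), pre-incubated with compound 15 min at 22 °C, then reacted 60 min with 10 μM ATP and 1 μM biotinylated peptide. Phospho-peptide detected by TR-FRET (665/620 nm ratio), normalised to no-inhibitor and no-enzyme controls.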

T1 sequence (P31749 whole entry): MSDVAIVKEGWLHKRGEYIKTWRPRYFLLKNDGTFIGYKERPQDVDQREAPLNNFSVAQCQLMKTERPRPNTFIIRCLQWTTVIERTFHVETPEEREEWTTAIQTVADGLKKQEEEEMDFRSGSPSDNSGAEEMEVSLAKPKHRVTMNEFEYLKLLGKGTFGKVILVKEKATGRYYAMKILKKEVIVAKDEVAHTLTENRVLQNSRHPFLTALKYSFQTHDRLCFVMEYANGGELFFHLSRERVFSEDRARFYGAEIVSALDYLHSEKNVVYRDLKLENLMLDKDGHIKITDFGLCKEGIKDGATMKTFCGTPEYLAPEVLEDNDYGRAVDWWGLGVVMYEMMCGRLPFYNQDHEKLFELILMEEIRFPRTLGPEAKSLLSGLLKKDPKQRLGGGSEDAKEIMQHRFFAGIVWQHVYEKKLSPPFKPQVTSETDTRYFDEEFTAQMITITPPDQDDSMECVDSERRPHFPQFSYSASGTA

As usually defined, the IC50 is the concentration that inhibits the measured activity by half. On to `Cc1nc2nc(-c3ccc(C4(N)CCC4)cc3)c(-c3ccccc3)cn2n1` [Example 1-0, 1-[4-(2-methyl-6-phenyl-[1,2,4]triazolo[1,5-a]pyrimidin-5-yl)-phenyl]-cyclobutylamine], for which the IC50 in experiment [1] is 794 nM; in experiment [2], 960 nM.

`Cc1cn2cc(-c3ccccc3)c(-c3ccc(C4(N)CCC4)cc3)nc2n1` [Example 2-1, 1-[4-(2-Methyl-6-phenyl-imidazo[1,2-a]pyrimidin-7-yl)-phenyl]-cyclobutylamine]: the half-inhibitory concentration (IC50) in experiment [1] came out at 474 nM; in experiment [2], 487 nM.

`CS(=O)(=O)c1ccc(-c2cnc3nc(-c4ccc(C5(N)CCC5)cc4)c(-c4ccccc4)cn23)cc1` [Example 4-0, 1-{4-[3-(4-Methansulfonyl-phenyl)-6-phenyl-imidazo[1,2-a]pyrimidin-7-yl]-phenyl}-cyclobutylamine]: the half-maximal inhibitory concentration (IC50) in experiment [1] was found to be 329 nM; in experiment [2] it was 299 nM.

On to `Cn1cc(-c2nc3nc(-c4ccc(C5(N)CCC5)cc4)c(-c4ccccc4)cn3n2)cn1` [Example 5-2, 1-{4-[2-(1-methyl-1H-pyrazol-4-yl)-6-phenyl-[1,2,4]triazolo[1,5-a]pyrimidin-5-yl]-phenyl}-cyclobutylamine], for which the figures for the 50% inhibitory concentration (IC50) in experiment [1] and in experiment [2] were 376 nM and 340 nM, respectively.

On to `NC1(c2ccc(-c3nc4ncc(-c5ccc(F)cc5)n4cc3-c3ccccc3)cc2)CCC1` [Example 6-0, 1-{4-[3-(4-Fluorophenyl)-6-phenyl-imidazo[1,2-a]pyrimidin-7-yl]-phenyl}-cyclobutylamine], for which the IC50 in experiment [1] stood at 1410 nM; in experiment [2] it was 681 nM.

As for `NC(=O)c1cccc(-c2cnc3nc(-c4ccc(C5(N)CCC5)cc4)c(-c4ccccc4)cn23)c1` [Example 6-2, 3-{7-[4-(1-Amino-cyclobutyl)-phenyl]-6-phenyl-imidazo[1,2-a]pyrimidin-3-yl}-benzamide], the half-maximal inhibitory concentration (IC50) in experiment [1] is 824 nM; in experiment [2], 205 nM.

On to `NC1(c2ccc(-c3nc4ncc(-c5cn[nH]c5)n4cc3-c3ccccc3)cc2)CCC1` [Example 6-3, 1-{4-[6-Phenyl-3-(1H-pyrazol-4-yl)-imidazo[1,2-a]pyrimidin-7-yl]-phenyl}-cyclobutylamine], for which the figures for the IC50 in experiment [1] and in experiment [2] were 235 nM and 165 nM, respectively.
